One assay relates to GTL-16 cells. The assay can be described thus: Cell viability by CellTiter-Glo, GTL-16. The assay is classed as cell-based, human. The settings on record: GTL-16, 0.3 μM, 72 hr treatment time. As to the method: (§1) Cell Viability was measured by CellTiter-Glo assay (Promega U.S., Madison, Wis., USA). GTL-16 and A375 cells were grown in 6-well poly-D-lysine coated plates (BD Biosciences). Cells were treated with NVP-AUY922. Cell viability was measured 16, 24, 48 and 72 hr post-treatment with Hsp90 inhibitor. Briefly supernatants were removed and cells were washed with 3 ml of PBS, pH 7.4. 1 ml of a two component CellTiter-Glo reagent was added to each well and the plates were shaken vigorously for 2 min, followed by 10 min incubation at room temperature in the dark. Luminescent signal intensity was recorded with an integration time set between 0.25 and 1 s/well.
(ATP-based viability assays read luminescence as a measure of living cells.)

A further assay relates to A375 cells. The assay can be described thus: Cell viability by CellTiter-Glo, A375. Format: cell-based, human. As to conditions: A375, 0.3 μM, 72 hr treatment time. How it is done:
as §1

Assay [1] deals with A375 tumor-bearing mice. In words: Serum IL-8 / mouse KC in A375 mouse xenograft model. Also on record: drop of serum IL-8 levels / time at which serum IL-8 recovered to pre-treatment level: dose or concentration left out as unconfirmed. Format: in vivo. As to the method:
The in vivo study was carried out in strict accordance with Swiss law for animal protection and was approved by the Swiss Cantonal Veterinary Office of Basel-Stadt. GTL-16 (4×10^6) and A375 cells (5×10^6) were inoculated subcutaneously in the right flank in 200 μl Hanks' balanced salt solution (HBSS) or PBS, respectively. Invasive procedures were performed under Forene anesthesia. All experiments were performed in female Harlan HsdNpa: Athymic Nude-nu mice (Laboratory Animal Services, Novartis Pharma AG, Basel). The animals were kept under optimized hygienic conditions with 12 hr dark, 12 hr light conditions. The animals were fed food and water ad libitum. […] Mice in the control group were injected with the vehicle (D5W). Serum was isolated and tumors dissected over the time course 0-168 hr. Tumors were cut in two halves. One half was paraffin embedded and the other snap frozen, and stored at −80° C.
Human IL-8 levels in cell culture supernatants treated with NVP-AUY922 were initially assessed as part of a multiplexed bead-based cytokine panel (hu 27-plex panel I, Bio-rad Laboratories, Hercules, Calif., USA) with a BioPlex Suspension Array System (Bio-rad). Human IL-8 and mouse KC levels in serum derived from GTL-16 and A375 tumor-bearing mice treated with NVP-AUY922 were measured by single-plex cytokine bead-based assay (Milliplex, Millipore, Billerica, Mass., USA). The BioPlex system uses a liquid suspension array of beads. The beads align in a single file through a flow cell to the detector, where a red classification laser at a wavelength of 635 nm and a green reporter laser at a wavelength of 532 nm are used to identify each bead's spectral address and associated reporter signal, respectively.

Assay [2] has as its system A375 tumor-bearing mice. In words: Hsp70 expression in A375 xenograft tumors. The assay is classed as in vivo. As to conditions: single 50 mg/kg dose i.v. As to the method: (§2) The in vivo study was carried out in strict accordance with Swiss law for animal protection and was approved by the Swiss Cantonal Veterinary Office of Basel-Stadt. GTL-16 (4×10^6) and A375 cells (5×10^6) were inoculated subcutaneously in the right flank in 200 μl Hanks' balanced salt solution (HBSS) or PBS, respectively. Invasive procedures were performed under Forene anesthesia. All experiments were performed in female Harlan HsdNpa: Athymic Nude-nu mice (Laboratory Animal Services, Novartis Pharma AG, Basel). The animals were kept under optimized hygienic conditions with 12 hr dark, 12 hr light conditions. The animals were fed food and water ad libitum. A single 75 mg/kg and 50 mg/kg dose of Hsp90 inhibitor, NVP-AUY922 was administered to the GTL-16 and A375 tumor-bearing mice, when tumors had reached a mean volume of 200 mm^3-500 mm^3 in size. Mice in the control group were injected with the vehicle (D5W). Serum was isolated and tumors dissected over the time course 0-168 hr. Tumors were cut in two halves. One half was paraffin embedded and the other snap frozen, and stored at −80° C.
Total protein lysates were prepared from the GTL-16 and A375 cells with RIPA lysis buffer (Upstate, Millipore Corporation, Charlottesville, Va., USA). […] Proteins were quantified by bicinchoninic acid assay (Pierce Biotechnology, Rockford, Ill., USA) for Western blotting. […]

Another assay relates to tumor-bearing mice. In words: Serum IL-8 in tumor-bearing mice, summary of both models. Format: in vivo. As to conditions: single dose. How it is done:
as §2, with “Serum was isolated and tumors dissected over the time course 0-168 hr. Tumors were cut in two halves. One half was paraffin embedded and the other snap frozen, and stored at −80° C.” left out
Human IL-8 levels in cell culture supernatants treated with NVP-AUY922 were initially assessed as part of a multiplexed bead-based cytokine panel (hu 27-plex panel I, Bio-rad Laboratories, Hercules, Calif., USA) with a BioPlex Suspension Array System (Bio-rad). Human IL-8 and mouse KC levels in serum derived from GTL-16 and A375 tumor-bearing mice treated with NVP-AUY922 were measured by single-plex cytokine bead-based assay (Milliplex, Millipore, Billerica, Mass., USA). […]

On to `CCNC(=O)c1noc(-c2cc(C(C)C)c(O)cc2O)c1-c1ccc(CN2CCOCC2)cc1` [NVP-AUY922, 5-(2,4-Dihydroxy-5-isopropyl-phenyl)-4-(4-morhpolin-4-ylmethyl-phenyl)-isoxazole-3-carboxylic acid ethylamide], for which the “cell viability over time” value in the assay with GTL-16 cells and in the assay on A375 cells was “steadily declines” each time. Moreover, the “time at which serum IL-8 recovered to pre-treatment level” value in the assay on A375 tumor-bearing mice [1] came out at 168 h. The “drop of serum IL-8 levels” value in the assay on A375 tumor-bearing mice [1] (48 hr post-treatment) is on record as “approximately 40%”. Besides, in the assay on A375 tumor-bearing mice [1] (serum), the “murine IL-8 levels, measured indirectly as mu KC” value is given as “unchanged”. Further, the “Hsp70 induction in tumor compared with GTL-16 model” value in the assay on A375 tumor-bearing mice [2] was “same pattern of Hsp70 induction”. Besides, the “transient decrease in serum IL-8 levels” value with tumor-bearing mice is 40-70%.

Source of the values: patent publication US8563254B2, “Biomarkers of tumor pharmacodynamic response” (Novartis AG, priority 2009, dated 2013).
